Structures can show the parent of a compound that is named as a salt.
Molecular target: T1, human HPK1 (MAP4K1) (Homo sapiens, UniProt Q92918)
T1 construct: Recombinant human HPK1 kinase domain was obtained from ThermoFisher (Cat. #PV6357) and SignalChem (Cat. #M23-11G); purchased ThermoFisher; SignalChem PV6357; M23-11G
T1 sequence (Q92918 17-274 limits assumed): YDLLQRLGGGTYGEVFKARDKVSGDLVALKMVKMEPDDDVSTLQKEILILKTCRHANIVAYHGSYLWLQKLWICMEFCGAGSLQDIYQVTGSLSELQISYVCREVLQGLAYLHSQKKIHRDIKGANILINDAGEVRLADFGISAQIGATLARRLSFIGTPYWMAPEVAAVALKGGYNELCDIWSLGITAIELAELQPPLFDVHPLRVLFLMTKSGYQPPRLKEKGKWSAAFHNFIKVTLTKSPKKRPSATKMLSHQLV
Assay: Biochemical assay for activity against HPK1 (ADP-Glo, MBP substrate)
Details: recombinant human HPK1 kinase domain, 1 nM enzyme, ADP-Glo luminescence
Procedure, shortened: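 IC50s come from ADP-Glo luminescence after a 2 h room-temperature reaction phosphorylating MBP in the presence of ATP. Compound was first preincubated 15 min with 1 nM HPK1 kinase domain, human recombinant. Buffer: 50 mM HEPES pH 7.5, 150 mM NaCl, 3 mM TCEP, 10 mM MgCl2, 0.005% Tween-20, 0.01% BSA.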

IC50 [µM] | Compound
< 0.1 | COc1cc2c(cc1Nc1ncc3cnn(C[C@@H]4CCCN4C(C)=O)c3n1)[C@H](C)N(C)CC2 [Example 185, 1-((S)-2-((6-(((S)-6-methoxy-1,2-dimethyl-1,2,3,4-tetrahydroisoquinolin-7-yl)amino)-1H-pyrazolo[3,4-d]pyrimidin-1-yl)methyl)pyrrolidin-1-yl)ethan-1-one hydrochloride]
< 0.1 | COc1cc2c(cc1Nc1ncc3cnn(C[C@@H]4CCCN4C(=O)C(F)F)c3n1)CN(C)CC2 [Example 186, (S)-2,2-difluoro-1-(2-((6-((6-methoxy-2-methyl-1,2,3,4-tetrahydroisoquinolin-7-yl)amino)-1H-pyrazolo[3,4-d]pyrimidin-1-yl)methyl)pyrrolidin-1-yl)ethan-1-one]
< 0.1 | COc1nc2c(cc1Nc1ncc3cnn([C@H]4CC[C@H](O)CC4)c3n1)CN(C)CC2 [Example 187, (1r,4r)-4-(6-((2-methoxy-6-methyl-5,6,7,8-tetrahydro-1,6-naphthyridin-3-yl)amino)-1H-pyrazolo[3,4-d]pyrimidin-1-yl)cyclohexan-1-ol]
< 0.1 | COc1cc2c(cc1Nc1ncc3cnn(C[C@@H]4[C@H](C)CCN4C(C)=O)c3n1)CN(C)CC2 [Example 189, 1-((2S,3R)-2-((6-((6-methoxy-2-methyl-1,2,3,4-tetrahydroisoquinolin-7-yl)amino)-1H-pyrazolo[3,4-d]pyrimidin-1-yl)methyl)-3-methylpyrrolidin-1-yl)ethan-1-one]
< 0.1 | COc1cc2c(cc1Nc1ncc3cnn(C[C@@H]4CCCN4S(N)(=O)=O)c3n1)CN(C)CC2 [Example 190, (S)-2-((6-((6-methoxy-2-methyl-1,2,3,4-tetrahydroisoquinolin-7-yl)amino)-1H-pyrazolo[3,4-d]pyrimidin-1-yl)methyl)pyrrolidine-1-sulfonamide hydrochloride]
< 0.1 | COc1cc2c(cc1Nc1ncc3cnn(C[C@@H]4[C@@H](C)[C@H](F)CN4C(C)=O)c3n1)CN(C)CC2 [Example 191, 1-((2S,3R,4S)-4-fluoro-2-((6-((6-methoxy-2-methyl-1,2,3,4-tetrahydroisoquinolin-7-yl)amino)-1H-pyrazolo[3,4-d]pyrimidin-1-yl)methyl)-3-methylpyrrolidin-1-yl)ethan-1-one]
< 0.1 | COc1cc2c(cc1Nc1ncc3cnn(C4CCC(F)(F)CC4)c3n1)CN(C)CC2 [Example 192, N-[1-(4,4-difluorocyclohexyl)pyrazolo[3,4-d]pyrimidin-6-yl]-6-methoxy-2-methyl-3,4-dihydro-1H-isoquinolin-7-amine Hydrochloride]
< 0.1 | COc1cc2c(cc1Nc1ncc3cnn(C[C@@H]4CCCN4C(C)=O)c3n1)CN(CCO)CC2 [Example 194, (S)-1-(2-((6-((2-(2-hydroxyethyl)-6-methoxy-1,2,3,4-tetrahydroisoquinolin-7-yl)amino)-1H-pyrazolo[3,4-d]pyrimidin-1-yl)methyl)pyrrolidin-1-yl)ethan-1-one]
< 0.1 | COc1cc2c(cc1Nc1ncc3cnn(C[C@@H]4CCCN4C(C)=O)c3n1)CN(C[C@@H](C)O)CC2 [Example 195, 1-((S)-2-((6-((2-((R)-2-hydroxypropyl)-6-methoxy-1,2,3,4-tetrahydroisoquinolin-7-yl)amino)-1H-pyrazolo[3,4-d]pyrimidin-1-yl)methyl)pyrrolidin-1-yl)ethan-1-one]
< 0.1 | COc1cc2c(cc1Nc1ncc3cnn(C[C@@H]4CCCN4C(C)=O)c3n1)CN(C(C)C)CC2 [Example 196, (S)-1-(2-((6-((2-isopropyl-6-methoxy-1,2,3,4-tetrahydroisoquinolin-7-yl)amino)-1H-pyrazolo[3,4-d]pyrimidin-1-yl)methyl)pyrrolidin-1-yl)ethan-1-one hydrochloride]
< 0.1 | COCCN1CCc2cc(OC)c(Nc3ncc4cnn(C[C@@H]5CCCN5C(C)=O)c4n3)cc2C1 [Example 197, (S)-1-(2-((6-((6-methoxy-2-(2-methoxyethyl)-1,2,3,4-tetrahydroisoquinolin-7-yl)amino)-1H-pyrazolo[3,4-d]pyrimidin-1-yl)methyl)pyrrolidin-1-yl)ethan-1-one Hydrochloride]
< 0.1 | COc1nc2c(cc1Nc1ncc3cnn(C[C@@H]4CCCN4C(C)=O)c3n1)CN(C)CC2 [Example 198]
< 0.1 | COc1cc2c(cc1Nc1ncc3cnn(C[C@H]4CC[C@H](O)CC4)c3n1)CN(C)CC2 [Example 199, (trans)-4-((6-((6-methoxy-2-methyl-1,2,3,4-tetrahydroisoquinolin-7-yl)amino)-1H-pyrazolo[3,4-d]pyrimidin-1-yl)methyl)cyclohexan-1-ol hydrochloride]
< 0.1 | COc1cc2c(cc1Nc1ncc3cnn(CC4(C)CC4)c3n1)CN(C)CC2 [Example 203, 6-methoxy-2-methyl-N-(1-((1-methylcyclopropyl)methyl)-1H-pyrazolo[3,4-d]pyrimidin-6-yl)-1,2,3,4-tetrahydroisoquinolin-7-amine]
< 0.1 | COc1cc2c(cc1Nc1ncc3cnn(CC4(F)CC4)c3n1)CN(C)CC2 [Example 204, N-(1-((1-fluorocyclopropyl)methyl)-1H-pyrazolo[3,4-d]pyrimidin-6-yl)-6-methoxy-2-methyl-1,2,3,4-tetrahydroisoquinolin-7-amine]
< 0.1 | COc1cc2c(cc1Nc1ncc3cnn(CC4CC4(F)F)c3n1)CN(C)CC2 (stereo not drawn) [Example 206, N-(1-((2,2-difluorocyclopropyl)methyl)-1H-pyrazolo[3,4-d]pyrimidin-6-yl)-6-methoxy-2-methyl-1,2,3,4-tetrahydroisoquinolin-7-amine]
< 0.1 | COc1cc2c(cc1Nc1ncc3cnn(C[C@@H]4CCCN4C(C)=O)c3n1)C(C(F)(F)F)N(C)CC2 (stereo partly drawn) [Example 208, 1-((2S)-2-((6-((6-methoxy-2-methyl-1-(trifluoromethyl)-1,2,3,4-tetrahydroisoquinolin-7-yl)amino)-1H-pyrazolo[3,4-d]pyrimidin-1-yl)methyl)pyrrolidin-1-yl)ethan-1-one]
< 0.1 | COc1cc2c(cc1Nc1ncc3cnn([C@@H]4CC[C@H]5CN(C(C)=O)[C@H]54)c3n1)CN(C)CC2 [Example 209, 1-((1S,4R,5R)-4-(6-((6-methoxy-2-methyl-1,2,3,4-tetrahydroisoquinolin-7-yl)amino)-1H-pyrazolo[3,4-d]pyrimidin-1-yl)-6-azabicyclo[3.2.0]heptan-6-yl)ethan-1-one]
< 0.1 | COc1cc2c(cc1Nc1ncc3cnn([C@H]4CCN(C(C)=O)C[C@H]4C)c3n1)CN(C)CC2 [Example 210, 1-((3R,4S)-4-(6-((6-methoxy-2-methyl-1,2,3,4-tetrahydroisoquinolin-7-yl)amino)-1H-pyrazolo[3,4-d]pyrimidin-1-yl)-3-methylpiperidin-1-yl)ethan-1-one]
0.1 to 0.25 | COc1cc2c(cc1Nc1ncc3cnn(C[C@H]4CCCCN4C(C)=O)c3n1)CN(C)CC2 [Example 211, 1-[(2R)-2-[[6-[(6-methoxy-2-methyl-3,4-dihydro-1H-isoquinolin-7-yl)amino]pyrazolo[3,4-d]pyrimidin-1-yl]methyl]-1-piperidyl]ethenone hydrochloride]
< 0.1 | COc1nc2c(cc1Nc1ncc3cnn(C[C@@H]4C[C@H](F)CN4C(C)=O)c3n1)CN(C)CC2 [Example 212, 1-[(2S,4S)-4-fluoro-2-[[6-[(2-methoxy-6-methyl-7,8-dihydro-5H-1,6-naphthyridin-3-yl)amino]pyrazolo[3,4-d]pyrimidin-1-yl]methyl]pyrrolidin-1-yl]ethenone]
< 0.1 | COc1cc2c(cc1Nc1ncc3cnn(C[C@@H]4[C@@H](F)CCN4C(C)=O)c3n1)CN(C)CC2 [Example 213, 1-[(2R,3S)-3-fluoro-2-[[6-[(6-methoxy-2-methyl-3,4-dihydro-1H-isoquinolin-7-yl)amino]pyrazolo[3,4-d]pyrimidin-1-yl]methyl]pyrrolidin-1-yl]ethanone]
< 0.1 | COc1cc2c(cc1Nc1ncc3cnn(C[C@@H]4C[C@H]5C[C@H]5N4C(C)=O)c3n1)CN(C)CC2 [Example 215, 1-[(1R,3S,5R)-3-[[6-[(6-methoxy-2-methyl-3,4-dihydro-1H-isoquinolin-7-yl)amino]pyrazolo[3,4-d]pyrimidin-1-yl]methyl]-2-azabicyclo[3.1.0]hexan-2-yl]ethanone]
< 0.1 | COc1cc2c(cc1Nc1ncc3cnn(C[C@@H]4C[C@@H]5C[C@@H]5N4C(C)=O)c3n1)CN(C)CC2 [Example 216, 1-[(1S,3S,5S)-3-[[6-[(6-methoxy-2-methyl-3,4-dihydro-1H-isoquinolin-7-yl)amino]pyrazolo[3,4-d]pyrimidin-1-yl]methyl]-2-azabicyclo[3.1.0]hexan-2-yl]ethanone]
< 0.1 | COc1cc2c(cc1Nc1ncc3cnn(C[C@@H]4CCCN4C(N)=O)c3n1)CN(C)CC2 [Example 217, (2S)-2-[[6-[(6-methoxy-2-methyl-3,4-dihydro-1H-isoquinolin-7-yl)amino]pyrazolo[3,4-d]pyrimidin-1-yl]methyl]pyrrolidine-1-carboxamide]
< 0.1 | COc1cc2c(cc1Nc1ncc3cnn(CC4CCCNC4=O)c3n1)CN(C)CC2 (stereo not drawn) [Example 218, 3-[[6-[(6-methoxy-2-methyl-3,4-dihydro-1H-isoquinolin-7-yl)amino]pyrazolo[3,4-d]pyrimidin-1-yl]methyl]piperidin-2-one]
< 0.1 | COc1cc2c(cc1Nc1ncc3cnn(Cc4cc[nH]c(=O)c4)c3n1)CN(C)CC2 [Example 219, 4-[[6-[(6-methoxy-2-methyl-3,4-dihydro-1H-isoquinolin-7-yl)amino]pyrazolo[3,4-d]pyrimidin-1-yl]methyl]-1H-pyridin-2-one]
